Reference: patent publication US12187672B2, “1,2-diacylglycerol compound, preparation method therefor, and immunomodulator containing same as active ingredient” (ENZYCHEM LIFESCIENCES CORPORATION, priority 2018, dated 2025)

Key:
[1] = system: HL-60 cells; test: Migration of HL-60 cell line toward THP-1 culture supernatant (transmigration assay); format: cell-based, human; details: supernatant of THP-1 cells treated with sample 100 μg/ml 1 h, then Gemcitabine 2 μg/ml 24 h
Procedure: In RPMI (Hyclone, Thermo Scientific) medium to which 10% Fetal Bovine Serum was added, THP-1 cells, a human macrophage family, were subcultured at a concentration of 1×10^5 cells/ml, and culture was conducted in a 5% CO2 humidified incubator at 37° C. In order to prepare the THP-1 cell culture solution to be treated in the lower well during the transmigration assay, first, the cultured THP-1 cells were inoculated into a 12 well plate by 1×10^6 cells/ml and stabilized for 30 minutes. Then, the culture solution was treated with a glycerol derivative compounds of the type shown in Table 7 below for 1 hour and then was treated with Gemcitabine (2 μg/ml) of a cell stimulator, and subsequent further incubation was conducted for 24 hours. Thereafter 1.5 ml of the culture supernatant was collected for each well and centrifuged (at 3000 rpm, 5 minutes) to recover the supernatant. The CXCL8 (IL-8) level in the recovered supernatant was measured according to the manual provided by Cultrex 96 well Laminin Cell Invasion assay. The day before Transmigration assay was carried out, a 1× Lamin I solution was treated in the upper Invasion Chamber and coated. Thereafter, in RPMI (Hyclone, Thermo Scientific) medium to which 10% Fetal Bovine Serum was added, the cultured HL-60 cells were despensed of 5×10^4 cells/chamber, and 150 μl of the THP-1 culture supernatant prepared in advance was added to the lower chamber. Thereafter the upper chamber was removed, and the cells were attached to the bottom of the lower chamber by a centrifuge, and then the supernatant was removed. Cell dissociation/Calcein-AM solution was added and reacted for 1 hour. Then, the value obtained using a fluorescence spectroscopy was calculated by converting the number of cells.

[2] = system: STAT3; test: IL-6-induced STAT3 activity, SEAP expression in HEK-Blue IL-6 cells; format: cell-based; details: for decrease of STAT3 activity compared to the IL-6 cytokine-treated group / STAT3 activity_SEAP expression(%) (average ± deviation): HEK-Blue IL-6 cells; for decrease of STAT3 activity compared to the IL-6 cytokine-treated group: 100 μg/ml; for STAT3 activity_SEAP expression(%) (average ± deviation): negative control = 100
Procedure: HEK-Blue™ IL-6 cells were used to confirm STAT3 activity by STAT3-induced SEAP (secreted embryonic alkaline phosphatase) expression. In DMEM (Hyclone, Thermo Scientific) medium to which 10% Fetal Bovine Serum was added, HEK-Blue™ IL-6 cells were cultured at a concentration of 1×10^5 cells/ml, and maintained in a 5% CO2 humidified incubator at 37° C. The cultured HEK-Blue™ IL-6 cells were inoculated by 1×10^5 cells/ml. Then, the culture solution was treated with a glycerol derivative compounds of the type shown in Table 4 below for 1 hour and then IL-6 (5 ng/ml) was further incubated for 24 hours for STAT3 activity. Thereafter, the culture supernatant was collected for each well and centrifuged (at 3000 rpm, 5 minutes) to recover the supernatant. The SEAP expression level in the recovered supernatant was mixed with Quanti blue reagent and the supernatant at a ratio of 1:10 and left at 37° C. for about 30 minutes. Then, the SEAP concentration was confirmed at 650 nm wavelength using a spectrophotometer, and the results (STAT3 activity inhibitory ability) thereof are shown in Table 4 and FIG. 3 below.

[3] = system: CXCL8 (IL-8); test: CXCL8 (IL-8) expression reduction in Gemcitabine-treated THP-1 cells (ELISA); format: cell-based, human; details: THP-1 cells; for CXCL8 [IL-8] concentration (average ± deviation): sample 100 μg/ml 1 h, then Gemcitabine 2 μg/ml 24 h
Procedure: In RPMI (Hyclone, Thermo Scientific) medium to which 10% Fetal Bovine Serum was added, THP-1 cells, a human macrophage family, were suspended at a concentration of 1×10^5 cells/ml, and culture was conducted in a 5% CO2 humidified incubator at 37° C. The cultured THP-1 cells were inoculated into a 12 well plate by 1×10^6 cells/ml and stabilized for 30 minutes. Then, the culture solution was treated with a glycerol derivative compounds of the type shown in Table 6 below for 1 hour and then was treated with Gemcitabine (2 μg/ml) of a cell stimulator, and subsequent further incubation was conducted for 24 hours. Thereafter 1.5 ml of the culture supernatant was collected for each well and centrifuged (at 3000 rpm, 5 minutes) to recover the supernatant. The CXCL8 (IL-8) level in the recovered supernatant was measured according to the manual provided by the human IL-8 ELISA set (BD Biosciences). The day before ELISA was carried out, the IL-8 capture antibody was diluted in phosphate buffered saline, coated on a microwell, and then stored at 4° C. overnight. Each well was washed three times with a buffer solution and then blocked with 2% Bovine Serum Albumin (BSA) for 1 hour at room temperature. After washing with washing buffer solution three times, 100 μl of sample was dispensed into each well and left at room temperature for 2 hours. Detection antibody which was washed 3 times with washing buffer and diluted was dispensed into each well and allowed to react at room temperature for 1 hour and left at room temperature for 1 hour. Thereafter, the secondary HRP conjugated antibody was reacted at room temperature for 30 minutes, washed three times with a washing buffer, and treated with 50 μl of stop solution for each well, and then the optical density was measured at 450 nm with an ELISA microplate leader.

[4] = system: IL-6; test: LPS-induced IL-6 secretion reduction in RAW264.7 cells (ELISA); format: cell-based, mouse; details: sample 100 μg/ml 1 h, then LPS 1 μg/ml 24 h, Table 2
Procedure: In DMEM (Dulbecco Modified Eagle Medium, Hyclone, Thermo Scientific) medium to which 10% Fetal Bovine Serum was added, RAW264.7 cells, a mouse macrophage family, were suspended at a concentration of 1×10^5 cells/ml, and culture was conducted in a 5% CO2 humidified incubator at 37° C. The cultured RAW264.7 cells were inoculated into a 48 well plate by 5×10^4 cells/ml and stabilized for 15 hours. Then, the culture solution was treated with a glycerol derivative compounds of the type shown in Table 2 and 3 below for 1 hour and then was treated with 1 μg/ml of Lipopolysaccaride (LPS) of a cell stimulator, and subsequent further incubation was conducted for 24 hours. Thereafter 0.5 ml of the culture supernatant was collected for each well and centrifuged (at 3000 rpm, 5 minutes) to recover the supernatant. The IL-6 level in the recovered supernatant was measured according to the manual provided by the Mouse IL-6 ELISA set (BD Biosciences). The day before ELISA was carried out, the IL-6 capture antibody was diluted in phosphate buffered saline, coated on a microwell, and then stored at 4° C. overnight. Each well was washed three times with a buffer solution and then blocked with 2% Bovine Serum Albumin (BSA) for 1 hour at room temperature. After washing with buffer solution three times, […] of sample was dispensed into each well and left at room temperature for 2 hours. Detection antibody which was washed 3 times with washing buffer solution and diluted was dispensed into each well and allowed to react at room temperature for 1 hour and left at room temperature for 1 hour. Thereafter, the secondary HRP conjugated antibody was reacted at room temperature for 30 minutes, washed three times with a buffer solution, and treated with 50 μl of stop solution for each well, and then the optical density was measured at 450 nm with an ELISA microplate leader. The results of the IL-6 expression reduction rate (IL-6 concentration) are shown in Table 2, Table 3, FIG. 1 and FIG. 2 below.

[5] = system: STAT6; test: IL-4-induced STAT6 activity, pGL4-STAT6 luciferase reporter in A549 cells; format: cell-based; details: sample 100 μg/ml 1 h, then IL-4 (2 ng/ml) 20 h, Table 9
Procedure: In DMEM (Dulbecco Modified Eagle Medium, Hyclone, Thermo Scientific) medium to which 10% Fetal Bovine Serum was added, A549 cells were subcultured at a concentration of 1×10^5 cells/ml, and culture was conducted in a 5% CO2 humidified incubator at 37° C. The cultured A549 cells were inoculated into a 48 well plate by 1×10^5 cells/ml and stabilized for 18 hours. Thereafter, pGL4-STAT6 reporter vector containing a STAT6 binding promoter portion was mixed with Attractene to induce complex formation at room temperature for 15 minutes. This complex was treated with the cells and then further incubated for 24 hours. Thereafter, the culture solution was treated with a glycerol derivative compounds of the type shown in Table 9 and 10 below for 1 hour, and then IL-4 (2 ng/ml or 10 ng/ml) was further incubated for 20 hours for STAT6 activity. Thereafter, the culture supernatant was removed for each well, and the remaining cells were lysed with a cell lysis buffer, and then cell lysate was recovered. 90 μl of luciferase reagent was mixed with 10 μl of the recovered cell lysate, and the degree of fluorescence was confirmed using a luminometer. The results are shown in Table 9, Table 10, FIG. 9 and FIG. 10 below.

[6] = system: IL-4; test: PKC activator-induced IL-4 secretion reduction in EL-4 cells (ELISA); format: cell-based, mouse; details: sample 100 μg/ml 2 h, then PKC activator 18 h, Table 11
Procedure: In DMEM (Dulbecco Modified Eagle Medium, Hyclone, Thermo Scientific) medium to which 10% Fetal Bovine Serum was added, EL-4 cells, a mouse lymphoma family, were subcultured at a concentration of 1×10^5 cells/ml, and culture was conducted in a 5% CO2 humidified incubator at 37° C. The cultured EL-4 cells were inoculated into a 48 well plate by 5×10^4 cells/ml and stabilized for 30 hours. Then, the culture solution was treated with a glycerol derivative compounds of the type shown in Table 11 and 12 below for 2 hours. Thereafter, it were treated with 0.5 μg/ml of PKC activator (p10, some kind of PMA) of a cell stimulator, and subsequent further incubation were conducted for 18 hours. Thereafter 0.5 ml of the culture supernatant was collected for each well and centrifuged (at 3000 rpm, 5 minutes) to recover the supernatant. The IL-4 level in the recovered supernatant was measured according to the manual provided by the Mouse IL-4 ELISA set (BD Biosciences). The day before ELISA was carried out, the IL-4 capture antibody was diluted in phosphate buffered saline, coated on a microwell, and then stored at 4° C. overnight. Each well was washed three times with a buffer solution and then blocked with 2% Bovine Serum Albumin (BSA) for 1 hour at room temperature. After washing with buffer solution three times, 100 μl of sample was dispensed into each well and left at room temperature for 2 hours. Detection antibody which was washed 3 times with washing buffer solution and diluted was dispensed into each well and allowed to react at room temperature for 1 hour and left at room temperature for 1 hour. Thereafter, the secondary HRP conjugated antibody was reacted at room temperature for 30 minutes, washed three times with buffer solution, and treated with 50 μl of stop solution for each well, and then the optical density was measured at 450 nm with an ELISA microplate leader. The results of the measured expression reduction rate ([…]) were shown in Table 11, Table 12, FIG. 11 and FIG. 12 below.

[7] = sample 100 μg/ml 1 h, then IL-6 5 ng/ml 24 h

Compound	Number of HL-60 cells migrated through Transwell [1]	decrease of STAT3 activity compared to the IL-6 cytokine-treated group [2]	STAT3 activity_SEAP expression(%) (average ± deviation) [2, 7]	CXCL8 [IL-8] concentration (average ± deviation) [3]	IL-6 concentration (average ± deviation) [4]	STAT6 activity_Luciferase activity (average ± deviation) [5]	reduction of CXCL8 (IL-8) expression/secretion ([3]; Gemcitabine-treated, 100 μg/ml)	IL-4 concentration (average ± deviation) [6]	increase of STAT3 activity compared to the negative control group ([2]; HEK-Blue IL-6 cells treated with IL-6)	STAT3 activity_SEAP expression(%) (average ± deviation) ([2]; IL-6 5 ng/ml alone)
CCCCC/C=C\C/C=C\CCCCCCCC(=O)OC(COC)COC(=O)CCCCCCCCCCCCCCC (stereo not shown) [EC_A13]	8679.7 Cell Number	about 25%	167.2 ± 8.4%	96.6 ± 0.2 pg/µL	0.266 ± 0.024 µg/mL	1150.2 ± 44.9				
CCCCC/C=C\C/C=C\CCCCCCCC(=O)OC(COCC)COC(=O)CCCCCCCCCCCCCCC (stereo not shown) [EC_A14]			185.0 ± 30.0%		0.277 ± 0.002 µg/mL	539.2 ± 40.3				
CCCCC/C=C\C/C=C\CCCCCCCC(=O)OC(COCCC)COC(=O)CCCCCCCCCCCCCCC (stereo not shown) [EC_A15]	28884.8 Cell Number		232.0 ± 50.4%	73.8 ± 0.0 pg/µL	0.125 ± 0.003 µg/mL	707.5 ± 51.3	about 20%			
CCCCC/C=C\C/C=C\CCCCCCCC(=O)OC(COC(=O)CCCCCCCCCCCCCCC)COC(=O)c1ccccc1 (stereo not shown) [EC_A16]	26348.9 Cell Number	about 25%	171.1 ± 17.5%	135.1 ± 2.3 pg/µL	0.238 ± 0.008 µg/mL	964.5 ± 170.3				
CCCCC/C=C\C/C=C\CCCCCCCC(=O)OC(COC(=O)CCCCCCCCCCCCCCC)COC(=O)C(C)CC (stereo not shown) [EC_A20]			196.7 ± 35.1%		0.055 ± 0.001 µg/mL	609.5 ± 197.0		194.2 ± 47.5 pg/µL		
CCCCC/C=C\C/C=C\CCCCCCCC(=O)OC(COC(=O)CCCCCCCCCCCCCCC)COC(=O)C(C)(C)C (stereo not shown) [EC_A22]	1181.1 Cell Number	about 25%	169.5 ± 10.5%			645.5 ± 111.4				
CCCCC/C=C\C/C=C\CCCCCCCC(=O)OC(COC(=O)CN)COC(=O)CCCCCCCCCCCCCCC (stereo not shown) [EC_A57]			243.0 ± 29.5%		0.120 ± 0.002 µg/mL			745.6 ± 8.35 pg/µL		
IL-6: IL-6 cytokine used to induce STAT3 activity [reference compound]									about 2.3 times	228.8 ± 17.0%
